The values below come from ChEMBL document CHEMBL1201862, “PubChem BioAssay data set” (2004).

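Test compounds were applied to cells in 96-well plates for 48 hours at 5 doses. Here, GI50 denotes the concentration required for 50% inhibition of growth.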 Activity calls are given as the source filed them. No stated cut-off is given here; in the data, active = GI50 up to about 1.1 µM and inactive = higher.

Test in all cases: NCI tumour cell line growth inhibition, 48 h
The subject of assay [1] is DLD-1.
Assay [2] relates to DMS-273.
Assay [3] concerns KM-20L2.
The subject of assay [4] is LXFL 529.
Assay [5] relates to M19-MEL.
Assay [6] concerns SNB-78.
Assay [7] concerns XF498.
Assay [8] concerns HOP-18.
For assay [9], the system named is RXF 631.

As for `Cc1cc(C)nc(NS(=O)(=O)c2ccc(NC(=O)c3cccc4c(N)c5ccccc5nc34)cc2)n1`, the GI50 in [1] was > 100 µM (inactive); in assay [2], > 100 µM (inactive); in assay [3], 88.7 µM (inactive); in assay [4], > 100 µM (inactive); in assay [5], > 100 µM (inactive); in assay [6], > 100 µM (inactive). For the same compound, the GI50 in assay [7] is > 100 µM (inactive).

For the compound `O=C(Nc1ccc(Cl)cc1Cl)C(=O)C(C(=O)c1ccc2ccccc2c1)C1OC(=O)c2ccccc21` (stereo not drawn), the GI50 in assay [1] is 10.7 µM (inactive); in [4], 3.33 µM (inactive); in assay [5], 12.6 µM (inactive); in [6] it was 3.33 µM (inactive).

As to `Cn1cccc(C(=O)c2ccccc2)c1=O`, the GI50 in [1], in assay [2], in assay [3], in [4], in [5] and in assay [6] was > 100 µM (inactive) each time. Also, the GI50 in assay [7] was > 100 µM (inactive).

Take `CCC/C=C\C=C\C1(NS(=O)(=O)c2ccc(C)cc2)CCC(C(C)(C)C)CC1` (stereo not drawn): the GI50 in [1] is 19.4 µM (inactive); in assay [2], 13.4 µM (inactive); in [8] it was 14.9 µM (inactive); in [3] it was 16.9 µM (inactive); in assay [4], 25.2 µM (inactive); in [5], 17.1 µM (inactive). Besides, the GI50 was 19.1 µM (inactive) in [6] and 16.7 µM (inactive) in assay [7].

As for `Cc1c(/C=N/NC(=O)c2ccc(Cl)cc2)c(=O)n(-c2ccccc2)n1C`, the GI50 in assay [1], in assay [2], in assay [8], in [3], in assay [4] and in assay [5] was > 100 µM (inactive) throughout. Besides, in [6], the GI50 was > 100 µM (inactive).

`N#CCCC[Si]12OCCN(CCO1)CCO2`: the GI50 in assay [1], in assay [2], in assay [8], in assay [4], in [5] and in assay [6] was > 100 µM (inactive) each time.

Take `O=C1Cc2ccccc2CCc2ccsc21`: the GI50 in [1] was > 100 µM (inactive); in assay [2], > 100 µM (inactive); in assay [8] it was 70.8 µM (inactive); in assay [3], > 100 µM (inactive); in assay [4] it was > 100 µM (inactive); in [5], > 100 µM (inactive). In addition, the GI50 in [6] and in assay [7] was > 100 µM (inactive) throughout.

As for `CC(CN(C)C)/C(=N\Nc1ccccc1)c1ccccc1` (stereo not drawn), the GI50 is 0.256 µM (active) in assay [1]; 0.324 µM (active) in [2]; 10.7 µM (inactive) in [8]; 0.132 µM (active) in [3]; 0.0473 µM (active) in assay [4]; 1.24 µM (inactive) in assay [5]. Also, the GI50 in [6] was 6.1 µM (inactive).

As for `Clc1ccccc1C(n1cc(Br)cn1)n1cc(Br)cn1`, the GI50 in assay [1] was 18.6 µM (inactive); in assay [2], 17.8 µM (inactive); in [4], 95.7 µM (inactive); in [5], 14.4 µM (inactive); in [9], > 10 µM (inactive); in assay [6], > 100 µM (inactive). Moreover, the GI50 in assay [7] is 17.5 µM (inactive).

For `CC(=O)CC(=O)CCCC(=O)Nc1ccc(Cl)cc1Cl`, the GI50 was > 100 µM (inactive) in assay [1]; > 100 µM (inactive) in assay [2]; 25.2 µM (inactive) in [8]; > 100 µM (inactive) in [3]; > 100 µM (inactive) in [4]; > 100 µM (inactive) in assay [9]. Also, the GI50 in assay [7] was > 100 µM (inactive).

Take `COC(=O)C1=C(c2ccc3c(c2)OCO3)O[C@H](c2cc(OC)c(OC)c(OC)c2)[C@H]1COC(C)=O`: the GI50 is 7.19 µM (inactive) in [1]; 2.64 µM (inactive) in assay [2]; 15.2 µM (inactive) in assay [8]; 2.14 µM (inactive) in assay [3]; 2.94 µM (inactive) in assay [4]; 2.45 µM (inactive) in [5]. Also, the GI50 in [6] was 8.49 µM (inactive); in assay [7] it was 4.25 µM (inactive).

As for `COc1ccc(S(=O)(=O)N/N=C\c2cc([N+](=O)[O-])cc(I)c2O)c(OC)c1OC`, the GI50 in [1] was 28.8 µM (inactive); in assay [2], 32.4 µM (inactive); in [8] it was 23.3 µM (inactive); in assay [3], 36.2 µM (inactive); in [4] it was > 10 µM (inactive); in assay [5], 31.7 µM (inactive). Moreover, the GI50 in [6] was 28.6 µM (inactive); in [7], 20.7 µM (inactive).

Turning to `Cc1ccc(S(=O)(=O)CC(=O)CC(=O)C(=O)Nc2cccc(C(F)(F)F)c2)cc1`, the GI50 in assay [1], in assay [2], in [3], in [4], in assay [5] and in assay [9] was > 100 µM (inactive) throughout. The GI50 in assay [6] and in [7] was > 100 µM (inactive) throughout.

Take `COc1cc2c(cc1OC)C(C(=O)O)C(c1ccccc1)N(C)C2=O` (stereo not drawn): the GI50 in assay [1], in assay [8], in assay [3], in assay [4], in [5] and in assay [6] was > 100 µM (inactive) in each case. The GI50 in assay [7] was > 100 µM (inactive).

With `CCN(CC)CCCCC1CCN(CC(=O)N2CC(C)C(=O)Nc3ccccc32)CC1` (stereo not drawn), the GI50 in [1], in [2], in assay [8], in assay [3], in [4] and in [5] was > 100 µM (inactive) each time.

With `Cc1cccc(NC(=O)CC#N)c1Cl`, the GI50 in [1], in [2], in assay [3], in [4], in assay [5] and in [6] was > 100 µM (inactive) each time. Also, the GI50 in assay [7] is > 100 µM (inactive).

`O=C1c2ccc3c4ccccc4n(-c4ccccc4)c3c2C(=O)N1c1ccc(Cl)cc1`: the GI50 in [1], in assay [2], in assay [3], in assay [4], in [5] and in assay [9] was > 100 µM (inactive) throughout. Further, the GI50 in assay [6] was > 100 µM (inactive).

As to `CCCCSN1C(=O)c2ccccc2C1=S`, the GI50 in assay [1] is 44.8 µM (inactive); in assay [2], 45.3 µM (inactive); in assay [5] it was 56.2 µM (inactive); in assay [9] it was > 100 µM (inactive); in assay [6], 49.3 µM (inactive); in [7], > 100 µM (inactive).

With `O=C1C=CC(=O)C2C1Cc1ccccc1C2c1ccccc1` (stereo not drawn), the GI50 in assay [1] is 56.2 µM (inactive); in assay [2] it was 58.6 µM (inactive); in [8], 53.6 µM (inactive); in assay [3] it was 50 µM (inactive); in assay [4] it was 17.3 µM (inactive); in assay [5] it was 30.1 µM (inactive).

Take `CC(=O)O[C@]1(C)OC(=O)[C@@H](C)N1[N+](=O)[O-]`: the GI50 is > 100 µM (inactive) in assay [1]; 96.6 µM (inactive) in [2]; > 100 µM (inactive) in assay [8]; > 100 µM (inactive) in assay [3]; > 100 µM (inactive) in [4]; > 100 µM (inactive) in assay [5]. Also, the GI50 in [6] is > 100 µM (inactive); in assay [7], < 0.01 µM (active).

For the compound `Cc1ccc([N+]2=NC(c3ccc([N+](=O)[O-])cc3)=NN(c3ccccc3)C2)cc1`, the GI50 in assay [1] is 25.7 µM (inactive); in assay [2], 70.6 µM (inactive); in assay [3], > 100 µM (inactive); in assay [4] it was 42.1 µM (inactive); in assay [5] it was > 100 µM (inactive); in assay [6] it was 32.5 µM (inactive). Further, the GI50 in assay [7] is > 100 µM (inactive).

Turning to `COC1C(CO)OC(n2c3c(Cl)cccc3c3c4c(c5c6cccc(Cl)c6[nH]c5c32)C(=O)NC4=O)C(O)C1O` (stereo not drawn), the GI50 was 0.568 µM (active) in assay [1]; 0.208 µM (active) in assay [2]; 0.586 µM (active) in [3]; 0.33 µM (active) in assay [4]; 0.274 µM (active) in [5]; 0.249 µM (active) in assay [9]. Moreover, the figures for the GI50 in assay [6] and in assay [7] were 0.631 µM (active) and 0.27 µM (active), respectively.

For the compound `CC(C)NC(=O)OCc1c(COC(=O)NC(C)C)c(-c2ccc(Cl)c(Cl)c2)n2c1CCC2`, the GI50 was > 51.5 µM (inactive) in assay [1]; > 49.2 µM (inactive) in [2]; > 61.2 µM (inactive) in assay [8]; 35.1 µM (inactive) in assay [3]; 3.6 µM (inactive) in [4]; 33.7 µM (inactive) in assay [5]. In addition, the results for the GI50 in assay [6] and in [7] were 21.2 µM (inactive) and 45.7 µM (inactive), respectively.

Take `CCN(CC)CCOC(=O)/C(=C/c1ccc(OC)cc1)c1cc(OC)c(OC)c(OC)c1`: the GI50 in [1] was 28.1 µM (inactive); in assay [2], 4.29 µM (inactive); in [8], 30.4 µM (inactive); in [3] it was 11.9 µM (inactive); in assay [4], 5.45 µM (inactive); in assay [5], 7.26 µM (inactive). The GI50 in assay [9] was 7.66 µM (inactive); in assay [6], 9.98 µM (inactive).

Turning to `O=C(/C=C/c1ccc(O)c(O)c1)c1ccc(O)cc1O` [BUTEIN], the GI50 in assay [1] is 13.9 µM (inactive); in assay [2] it was 10.6 µM (inactive); in assay [3], 17.1 µM (inactive); in [5], 14 µM (inactive); in [6], 20.8 µM (inactive).

In the case of `O=C(Nc1ccc(Cl)cc1)NS(=O)(=O)c1ccc2c(c1)CCC2` [SULOFENUR], the GI50 in assay [1] was 44.4 µM (inactive); in assay [2] it was 32.4 µM (inactive); in [8], 42.8 µM (inactive); in [3] it was 37.8 µM (inactive); in [4] it was 31.5 µM (inactive); in [5] it was > 68.7 µM (inactive). The GI50 in [6] was > 47 µM (inactive); in assay [7] it was 34.1 µM (inactive).
